{"source": "patent EP0975321B1", "about": "“THE USE OF THIOGLYCOLIC ACID AS DEPIGMENTING AGENT” (I.V. Pharma S.A.S., priority 1997, dated 1998)", "origin": "cited, not measured here", "settings": "Acidic strength; Table 1", "data": [{"smiles": "O=C(O)CS", "note": "[Tioglycolic acid, 2-mercaptoacetic acid]", "values": [{"measurement": "pKa value", "result": 3.68}]}, {"smiles": "O=C(O)C(Cl)(Cl)Cl", "note": "[Trichloroacetic acid]", "values": [{"measurement": "pKa value", "result": 0.70}]}]}
